This passage reports GI50 and IC50 results from ChEMBL document CHEMBL4177767, “Discovery of N2-(4-Amino-cyclohexyl)-9-cyclopentyl- N6-(4-morpholin-4-ylmethyl-phenyl)- 9H-purine-2,6-diamine as a Potent FLT3 Kinase Inhibitor for Acute Myeloid Leukemia with FLT3 Mutations” (J Med Chem, 2018).

The subject of one series is K562. Kind of series: cells. As to conditions: Homo sapiens, K562, 72 h.
The next series concerns MV4-11. The series can be described thus: Growth inhibition of human MV4-11 cells after 72 hrs by calcein AM dye-based fluorescence assay. It is filed as functional. As to conditions: MV4-11, 72 h.
The target in series [1] is Receptor-type tyrosine-protein kinase FLT3 (Homo sapiens, UniProt P36888, ITD). Kind of series: biochemical. It is filed as cell-based, Sf9.
Description: Inhibition of N-terminal GST/His6-fused recombinant human FLT3 (R571 to S993 residues) ITD mutant expressed in Sf9 insect cells using poly (Ala,Glu,Lys,Tyr) 6:2:5:1 hydrobromide as substrate in presence of [gamma-33P]ATP
A short description of series [2]: in vitro. The note with it: human, MRC5 cells.
Series [3] has as its target Receptor-type tyrosine-protein kinase FLT3 (Homo sapiens, UniProt P36888, D835Y). Kind of series: biochemical. It is filed as cell-based, Sf9.
Description: Inhibition of N-terminal GST/His6-fused recombinant human FLT3 (R571 to S993 residues) D835Y mutant expressed in Sf9 insect cells using poly (Ala,Glu,Lys,Tyr) 6:2:5:1 hydrobromide as substrate in presence of [gamma-33P]ATP
Another series concerns Kasumi 1. The series can be described thus: cells. The note with it: Homo sapiens, Kasumi 1, 72 h.
In another series the test system is HCC827. Kind of series: cells. As to conditions: Homo sapiens, HCC827, 72 h.
A further series relates to U-937. Kind of series: cells. As to conditions: Homo sapiens, U-937, 72 h.
The next series has as its system THP-1. Kind of series: cells. The note with it: Homo sapiens, THP-1, 72 h.
The subject of the next series is MCF7. Kind of series: cells. As to conditions: Homo sapiens, MCF7, 72 h.
Series [4] can be described thus: in vitro. The note with it: human, HUVEC.
A short description of series [5]: in vitro. The note with it: human, BJ cells.
The test system of another series is MOLM-13. The series can be described thus: cells. The note with it: Homo sapiens, MOLM-13, 72 h.

Each structure is given as a SMILES string.

The term GI50 denotes the concentration at which growth is held to half of that of the control. The IC50 is the concentration that gives 50% inhibition. A high value points to a need for much substance. In the case of `COc1ccc(CNc2nc(Nc3ccc(CN4CCOCC4)cc3)c3ncn(C4CCCC4)c3n2)cc1`, the GI50 is 6690 nM with K562 and 892 nM in the series on MV4-11. Besides, the half-maximal inhibitory concentration (IC50) in series [1] is 209 nM.
`CC(C)n1cnc2c(Nc3ccc(Br)cc3)nc(N[C@H]3CC[C@H](N)CC3)nc21`: the GI50 was 1170 nM in the series with K562 and 7 nM in the series on MV4-11. It took 10 nM to reach half-maximal inhibition in [1] (IC50).
In the case of `CC(O)CNc1nc(Nc2ccc(Br)cc2)c2ncn(C3CCCC3)c2n1` (configuration not stated), the GI50 in the series on K562 is greater than 25000 nM; with MV4-11, 444 nM. In addition, in [1], half-maximal inhibition (IC50) required 628 nM.
`CN1CCN(c2nc(Nc3ccc(Br)cc3)c3ncn(Cc4ccccc4)c3n2)CC1`: the GI50 was 3800 nM in the series on K562 and greater than 4000 nM in the series with MV4-11. This compound had an IC50 in series [1] greater than 20000 nM.
For `CC(O)CNc1nc(Nc2ccc(Cl)cc2)c2ncn(C3CCCC3)c2n1` (configuration not stated), the concentration for 50% growth inhibition (GI50) in the series on K562 was 10900 nM; in the series with MV4-11, 235 nM. For the same compound, the half-maximal inhibitory concentration (IC50) in [1] worked out at 1720 nM.
`C[C@@H](CO)CNc1nc(Nc2ccc(Br)cc2)c2ncn(C3CCCC3)c2n1`: the results for the GI50 in the series on K562 and with MV4-11 were 7630 nM and 1310 nM, respectively. In series [1], this compound returned a half-maximal inhibitory concentration (IC50) of 281 nM.
`N[C@H]1CC[C@H](Nc2nc(Nc3ccc(N4CCOCC4)nc3)c3ncn(C4CCCC4)c3n2)CC1`: the GI50 is 1300 nM in the series on K562 and 4 nM with MV4-11. The compound further returned an IC50 in [1] of 4 nM.
Consider `CN1CCN(c2nc(Nc3ccc(CN4CCOCC4)cc3)c3ncn(C4CCCC4)c3n2)CC1`, for which the 50% growth inhibitory concentration (GI50) is 2740 nM with K562 and 66 nM in the series on MV4-11. This compound yielded a half-maximal inhibitory concentration (IC50) in [1] of 53 nM.
`Brc1ccc(Nc2nc(N3CCOCC3)nc3c2ncn3Cc2ccccc2)cc1`: the GI50 is greater than 12500 nM in the series with K562 and greater than 4000 nM in the series with MV4-11. Besides, the IC50 in series [1] is greater than 20000 nM.
`c1cc(N2CCOCC2)ncc1Nc1nc(N2CCOCC2)nc2c1ncn2C1CCCC1`: the concentration for 50% growth inhibition (GI50) in the series on K562 was greater than 25000 nM; with MV4-11, 70 nM. Further, the concentration for half-maximal inhibition (IC50) in series [1] was determined as 71 nM.
With `N[C@H]1CC[C@H](Nc2nc(Nc3ccc(Cl)cc3)c3ncn(C4CCCC4)c3n2)CC1`, the GI50 with K562 is 840 nM; with MV4-11, 21 nM. This compound also yielded an IC50 in series [1] of 5 nM.
The like results for `OCCCCNc1nc(Nc2ccc(CN3CCOCC3)cc2)c2ncn(C3CCCC3)c2n1` were, in that order, 1450 nM, 83 nM and 18 nM.
Consider `OCCNc1nc(Nc2ccc(CN3CCOCC3)cc2)c2ncn(C3CCCC3)c2n1`, for which the 50% growth inhibitory concentration (GI50) with K562 was 2000 nM; in the series on MV4-11, 110 nM. In addition, the 50% inhibitory concentration (IC50) in [1] came out at 29 nM.
As to `N[C@H]1CC[C@H](Nc2nc(Nc3ccc(Br)cc3)c3ncn(C4CCCCO4)c3n2)CC1` (some centres not stated), the concentration for 50% growth inhibition (GI50) with K562 is 5170 nM; in the series with MV4-11, 181 nM. Moreover, the IC50 in [1] was 70 nM.
The like results for `N[C@H]1CC[C@H](Nc2nc(Nc3ccc(Br)cc3)c3ncn(Cc4ccccc4)c3n2)CC1` were, in that order, 3070 nM, 2290 nM and 798 nM.
For `NCCCCNc1nc(Nc2ccc(CN3CCOCC3)cc2)c2ncn(C3CCCC3)c2n1`, the 50% growth inhibitory concentration (GI50) at 72 h in the series “in vitro [2]” is 3880 nM; in the series “in vitro [4]”, 6260 nM; in “in vitro [5]”, 10400 nM. Also, the GI50 in the series on K562 is 2100 nM; in the series with Kasumi 1, 2240 nM; in the series on MV4-11 it was 11 nM; in the series on HCC827 it was 1660 nM; with U-937, 1340 nM; with THP-1, 3740 nM. Further, the figures for the concentration for 50% growth inhibition (GI50) with MCF7 and with MOLM-13 were 2100 nM and 19 nM, respectively. The IC50 in series [3] was 5 nM; in series [1], 1 nM.
For `Brc1ccc(Nc2nc(N3CCOCC3)nc3c2ncn3C2CCCCO2)cc1` (configuration not stated), the 50% growth inhibitory concentration (GI50) with K562 was 3740 nM; in the series on MV4-11, 3880 nM. Besides, in series [1], the IC50 was found to be 1200 nM.
The like results for `CC(O)CNc1nc(Nc2ccc(Br)cc2)c2ncn(C3CCCCO3)c2n1` (configuration not stated) were, in that order, 27900 nM, 2430 nM and 1140 nM.
`N[C@H]1CC[C@H](Nc2nc(Nc3ccc(N4CCN(Cc5ccccc5)CC4)cc3)c3ncn(C4CCCC4)c3n2)CC1`: the figures for the GI50 with K562 and in the series with MV4-11 were 700 nM and 17 nM, respectively. In series [1], this compound had an IC50 of 6 nM.
In the case of `OCCCNc1nc(Nc2ccc(CN3CCOCC3)cc2)c2ncn(C3CCCC3)c2n1`, the figures for the 50% growth inhibitory concentration (GI50) in the series on K562 and with MV4-11 were 2350 nM and 157 nM, respectively. Moreover, in series [1], the IC50 is 47 nM.
For `c1cc(Nc2nc(N3CCOCC3)nc3c2ncn3C2CCCC2)ccc1CN1CCOCC1`, the 50% growth inhibitory concentration (GI50) in the series with K562 was 4470 nM; in the series on MV4-11, 61 nM. In addition, inhibition in series [1] was half-maximal at 19 nM (IC50).
Take `CN1CCN(c2nc(Nc3ccc(Br)cc3)c3ncn(C4CCCCO4)c3n2)CC1` (configuration not stated): the figures for the GI50 in the series with K562 and in the series on MV4-11 were 7130 nM and 3200 nM, respectively. The compound also yielded a half-maximal inhibitory concentration (IC50) in [1] of 4210 nM.
Take `CC(O)CNc1nc(Nc2ccc(Br)cc2)c2ncn(Cc3ccccc3)c2n1` (configuration not stated): the concentration for 50% growth inhibition (GI50) with K562 was 9450 nM; in the series on MV4-11, greater than 4000 nM. Half-maximal inhibition in [1] (IC50) was put at 9850 nM.
In the case of `NCCCCNc1nc(Nc2ccc(N3CCOCC3)cc2)c2ncn(C3CCCC3)c2n1`, the GI50 at 72 h came to 7560 nM in “in vitro [2]”, 8060 nM in “in vitro [4]” and 13000 nM in “in vitro [5]”. The GI50 in the series with K562 is 3490 nM; in the series with Kasumi 1, 2020 nM; with MV4-11, 11 nM; in the series on HCC827, 1410 nM; in the series with U-937, 4070 nM; in the series with THP-1, 6910 nM. Further, the GI50 in the series with MCF7 amounted to 3260 nM; with MOLM-13, 17 nM. In addition, the IC50 in series [3] came to 7 nM; in series [1], 4 nM.
As for `NCCCCCCNc1nc(Nc2ccc(CN3CCOCC3)cc2)c2ncn(C3CCCC3)c2n1`, the results for the 50% growth inhibitory concentration (GI50) at 72 h in “in vitro [2]”, in the series “in vitro [4]” and in “in vitro [5]” were 4090 nM, 10300 nM and 7260 nM, respectively. Also, the GI50 in the series on K562 is 3790 nM; in the series on Kasumi 1 it was 1020 nM; in the series with MV4-11, 86 nM; in the series on HCC827, 2250 nM; in the series with U-937, 2920 nM; with THP-1, 3590 nM. Moreover, the GI50 is 5000 nM in the series on MCF7 and 54 nM in the series on MOLM-13. Moreover, the IC50 amounted to 69 nM in series [3] and 10 nM in series [1].
Regarding `CC(O)CNc1nc(Nc2ccc(Br)cc2)c2ncn(C(C)C)c2n1` (configuration not stated), the GI50 with K562 was 17800 nM; in the series on MV4-11, 1500 nM. In [1], the 50% inhibitory concentration (IC50) is 591 nM.
Consider `CCN1CCN(c2ccc(Nc3nc(NCCCCN)nc4c3ncn4C3CCCC3)cc2)CC1`, for which the GI50 at 72 h in the series “in vitro [2]” amounted to 10300 nM; in the series “in vitro [4]” it was 11400 nM; in the series “in vitro [5]” it was 15400 nM. Besides, the concentration for 50% growth inhibition (GI50) was 1340 nM in the series with K562; 2070 nM in the series with Kasumi 1; 12 nM in the series with MV4-11; 976 nM in the series with HCC827; 3420 nM in the series with U-937; 4360 nM with THP-1. Moreover, the GI50 in the series on MCF7 stood at 2150 nM; in the series with MOLM-13 it was 4 nM. For the same compound, the half-maximal inhibitory concentration (IC50) was 3 nM in series [3] and 1 nM in [1].
With `c1cc(Nc2nc(N3CCCCC3)nc3c2ncn3C2CCCC2)ccc1CN1CCOCC1`, the GI50 in the series with K562 is 11000 nM; in the series with MV4-11, 701 nM. Besides, the 50% inhibitory concentration (IC50) in [1] was found to be 50 nM.
With `NCCCCCNc1nc(Nc2ccc(CN3CCOCC3)cc2)c2ncn(C3CCCC3)c2n1`, the results for the 50% growth inhibitory concentration (GI50) at 72 h in the series “in vitro [2]”, in the series “in vitro [4]” and in the series “in vitro [5]” were 5880 nM, 14200 nM and 11200 nM, respectively. The 50% growth inhibitory concentration (GI50) in the series with K562 was 1530 nM; in the series with Kasumi 1, 1280 nM; in the series on MV4-11, 35 nM; in the series on HCC827, 1120 nM; in the series on U-937, 3630 nM; with THP-1, 2420 nM. Also, the GI50 in the series with MCF7 came to 2120 nM; in the series with MOLM-13, 20 nM. Moreover, the IC50 in series [3] was found to be 65 nM; in [1] it was 5 nM.
